Here are results for ten compounds from article PMC6936879, “Inhibiting the copper efflux system in microbes as a novel approach for developing antibiotics” (PLoS ONE, 2019).

Series [1] has as its system E. coli (BL21). The series is described as follows: Kirby-Bauer test (disc diffusion). It counts as cell-based. Particulars: 2 mm radius discs, LB petri dishes, 37 °C overnight. For orientation: Agar diffusion results depend on both activity and mobility in agar.
Series [2] is classed as physicochemical. Particulars: chemical stability; peptides diluted to 150 mM solution in double-distilled water, incubated at 37 °C for 24 h; ESI-MS spectra before and after incubation. An excerpt:
We hypothesized that peptides would penetrate into E. coli and bind to CusB, interfere with its physiological dimerization, and thereby induce non-physiological structural changes or inhibit physiological structural changes in the transporter in response to extended levels of Cu(I). Thus, E. coli will lose its ability to be protected by copper-mediated oxidative stress, resulting in the death of the bacteria. Unlike CusB, CueO has homologs in human cells (Superoxide dismutase, SOD), and the main role in this study is to affect the CusCFBA efflux system regardless to CueO function, all measurements were carried out with an active CueO. First, we verified whether all ten peptides were stable under physiological conditions via incubation at 37°C for 24 h by ESI-MS analysis (Figs B to D in S1 File). Peptides 2–10 were stable under these given conditions, whereas peptide 1 was unstable.
Validation of the peptides stability using ESI-MS
In order to confirm the stability of the peptides, them were diluted to 150 mM solution in double-distilled
water, then incubated at 37 °C for 24 hr.
S2 before the incubation (Figure S2A) and after the incubation (Figure S2B). All peptides besides pep1
Fig B: ESI-MS. ESI-MS spectra for pep1 and pep2, left panel presents the spectra after peptide
(1 picture or pasted object on this page, not shown here)

In series [3] the test system is E. coli (BL21;DE3). The series is described as follows: E. coli growth rate experiment (O.D. 600 nm) under copper stress. The format is cell-based. Particulars: M9 medium, 37 °C, value after 14 h incubation, 5 μM Cu(II) chloride in assay (sentence does not say with or without Cu(II)), mean ± SE, n = 5. Here is the method: E. coli (BL21;DE3) growth rates were evaluated in 96-well microplates: in 200 μl of a poor medium comprising M9 medium. Incubation was for 16 h at 37°C with Copper(II) chloride (Sigma-Aldrich, St. Louis, MO, USA) at a concentration of 5 μM. Absorbance at 600 nm was measured every 30 min after stirring for 5 s in a 96-well plate reader (SPL Life Sciences, Gyeonggi, Korea). The buffer background was auto-subtracted. Each experiment was repeated five times under identical conditions.
Next, E. coli were grown in M9 medium for 16 h, and their growth rate was evaluated in the absence and presence of Cu(II) in the medium. In each sample, a different peptide was introduced to the medium, with the kanamycin as a positive control. […] Growth rate values for all peptides at various concentrations after 14 h of incubation are presented in Fig 3 (the growth rate curves are presented in Figs E to F in S1 File).
Fig 3 Effect of test peptides on the E. coli growth rate. E. coli cultures were grown as described in Methods. The growth rate values after a 14 h incubation in the medium in the presence (gray lines) and absence (black lines) of Cu(II). Concentrations of the test peptides: A. 50 μM, B. 75 μM, C. 100 μM, and D. 125 μM. *p < 0.05, MEAN ± SE, n = 5, a comparison between the values in the presence and absence of Cu(II). #p < 0.05, MEAN ± SE, n = 5, in the presence of Cu(II) and comparing between values of a buffer and peptide. t-test was used for the statistic evaluation.

The subject of series [4] is E. coli (BL21;DE3). The series is described as follows: E. coli viability assay (LIVE/DEAD fluorescence imaging). It counts as cell-based. Particulars: peptide 125 μM; LIVE/DEAD staining, M9 medium, confocal imaging, cell counts with ImageJ; mean ± SE, n = 3. Here is the method:
E. coli (BL21;DE3) were dyed using the L7007 LIVE/DEAD Bacterial Viability kit (Molecular Probes, Eugene OR, USA); microbes were grown in M9 medium. Images were acquired on a Leica SP8 confocal microscope, running LASX acquisition software. The magnification consisted of a 63 X 1.4 NA objective. Microbes were counted using ImageJ software. Error calculations were based on three repetitions, with each experiment scanned at nine different tiles—all together, 27 repetitions.
Live/dead fluorescence cell imaging experiments were used to indicate bacterial viability when incubated with the peptides. This method also helped to determine whether the decrease in the growth rate described above resulted from deceleration in E. coli growth or its substantial death. E coli were grown to the late […] phase (according to the growth rate lines; Figs B to D in S1 File) in the presence of the peptides in poor medium (M9), which mostly resembles physiological conditions.[52–54] Glucose levels in the growth media were sufficient to prevent bacterial viability loss due to lack of nutrition, yet not too high to positively affect its viability. […] However, the effect of the peptides was not as substantial as the commercially available antibiotic kanamycin. […] 5 ± 4.3% and up to 45.3 ± 4.3% reduction at a concentration of 125 μM.
Fig 4 Effect of the test peptides on E. coli viability. […]

Setting [5] is: disc solution 50 µM in 0.85% NaCl.
Where [6] appears, read: disc solution 75 µM in 0.85% NaCl.
[7] abbreviates: disc solution 100 µM in 0.85% NaCl.
The mark [8] stands for this setting: disc solution 125 µM in 0.85% NaCl.

DPVWVTA [pep4]: the “r, radius of bacteria killing formed over petri dishes by peptide-solution discs” value in series [1] (setting [5]), in series [1] (setting [6]), in series [1] (setting [7]) and in series [1] (setting [8]) was 0 mm each time.

In the case of `NC[C@H]1O[C@H](O[C@H]2[C@H](O)[C@@H](O[C@H]3O[C@H](CO)[C@@H](O)[C@H](N)[C@H]3O)[C@H](N)C[C@@H]2N)[C@H](O)[C@@H](O)[C@@H]1O` [Kanamycin, kanamycin, reference compound], the “r, radius of bacteria killing formed over petri dishes by peptide-solution discs” value in series [1] (setting [5]), in series [1] (setting [6]), in series [1] (setting [7]) and in series [1] (setting [8]) was 2.5 mm in each case.

For MDPV [pep9], the “r, radius of bacteria killing formed over petri dishes by peptide-solution discs” value came to 0 mm in series [1] (setting [5]), 0.5 mm in series [1] (setting [6]), 0.5 mm in series [1] (setting [7]) and 1.5 mm in series [1] (setting [8]).

Turning to VWVTA [pep7], the “r, radius of bacteria killing formed over petri dishes by peptide-solution discs” value in series [1] (setting [5]), in series [1] (setting [6]), in series [1] (setting [7]) and in series [1] (setting [8]) was 0 mm each time.

In the case of “AKIQGMDPVWVTA [pep1, 13-amino acid parent peptide […] mimicking CusB residues 236-248]”, the “stability under physiological conditions (ESI-MS)” value in series [2] is “unstable”.

As for GMDPVW [pep6], the “r, radius of bacteria killing formed over petri dishes by peptide-solution discs” value in series [1] (setting [5]), in series [1] (setting [6]), in series [1] (setting [7]) and in series [1] (setting [8]) was 0 mm in each case.

On to AKIQGM [pep3], for which the “r, radius of bacteria killing formed over petri dishes by peptide-solution discs” value in series [1] (setting [5]), in series [1] (setting [6]), in series [1] (setting [7]) and in series [1] (setting [8]) was 0 mm throughout.

Turning to IQGMD [pep5], the “decrease in O.D. (600 nm)” value in series [3] (peptide 50 μM) was 54.5 ± 4.2%; in series [3] (peptide 100 μM), 77.2 ± 6.4%. Also, the “r, radius of bacteria killing formed over petri dishes by peptide-solution discs” value in series [1] (setting [5]) stood at 0 mm; in series [1] (setting [6]), 0.5 mm; in series [1] (setting [7]), 1 mm; in series [1] (setting [8]) it was 2 mm. Moreover, the “reduction of bacterial viability” value in series [4] was found to be 45.3 ± 4.3%.

PVWV [pep10]: the “r, radius of bacteria killing formed over petri dishes by peptide-solution discs” value is on record as 0 mm in series [1] (setting [5]), 0 mm in series [1] (setting [6]), 0.5 mm in series [1] (setting [7]) and 1.5 mm in series [1] (setting [8]).

In the case of KIQGMDPVWVT [pep2], the “r, radius of bacteria killing formed over petri dishes by peptide-solution discs” value in series [1] (setting [5]), in series [1] (setting [6]), in series [1] (setting [7]) and in series [1] (setting [8]) was 0 mm each time.
